The text below walks through data of patent publication US8323624B2, “S-triazine sunscreens bearing hindered para-aminobenzalmalonate/para-aminobenzalmalonamide and aminobenzoate/aminobenzamide substituents” (L'Oreal, priority 2004, dated 2012).

This data set in a line: Photostability of oily-solution films under solar simulator irradiation, quantified by HPLC. The class given is physicochemical. The following applies: 2% by weight in the oil Miglyol 812, film on ground glass; irradiated one hour with Oriel solar simulator (UV-A=14.2 mW/cm^2; UV-B=0.41 mW/cm^2); HPLC vs non-irradiated controls; means over 3 samples. How it is done:
The two products were dissolved at 2% by weight in the oil Miglyol 812. Approximately 10 mg of oily solution are spread over 10 cm^2 at the surface of a hollow disc made of ground glass; the amount is determined by weighing.
The films of the oily solutions are irradiated for one hour using an Oriel solar simulator (UV-A=14.2 mW/cm^2; UV-B=0.41 mW/cm^2) and then extracted with 10 ml of ethanol comprising 10% of isopropanol subjected to ultrasound for 5 min. The products are quantified by analyzing the extracts by HPLC.
HPLC conditions: column: UP5WOD-25QS, 250×4.6 mm, 5 μm, Interchrom; eluent: methanol (Comparative Example 1) and 98% methanol+2% water (Example 1); flow rate: 1 ml/min; volume injected: 10 μl; detection: diode array detector; rt (min): 5.2 (compound of the prior art) and 7.4 (compound of Example 1).
The levels of loss are determined by comparison of the amounts of product present in the irradiated samples and in the non-irradiated controls prepared simultaneously and treated in the same way (means over 3 samples; A=area/mg of solution): % loss=100×(A0−Airr)/A0

As for `CCCCOC(=O)c1ccc(Nc2nc(Nc3ccc(C=C(C(=O)OCC(C)(C)C)C(=O)OCC(C)(C)C)cc3)nc(Nc3ccc(C=C(C(=O)OCC(C)(C)C)C(=O)OCC(C)(C)C)cc3)n2)cc1` [Compound of formula (1), 2,4-bis(dineopentyl 4′-aminobenzalmalonate)-6-(butyl 4″-aminobenzoate)-s-triazine], the “% of disappearance (mean loss)” value is recorded as 4.6%.

With `CC(C)COC(=O)C(=Cc1ccc(Nc2nc(Nc3ccc(C=C(C(=O)OCC(C)C)C(=O)OCC(C)C)cc3)nc(Nc3ccc(C=C(C(=O)OCC(C)C)C(=O)OCC(C)C)cc3)n2)cc1)C(=O)OCC(C)C` [Compound (prior art), 2,4,6-Tris(diisobutyl 4′-aminobenzalmalonate)-s-triazine], the “% of disappearance (mean loss)” value is reported as 10.0%.
